Experimental data: patent US11312719B2, “9-substituted amino triazolo quinazoline derivatives as adenosine receptor antagonists, pharmaceutical compositions and their use” (Merck Sharp & Dohme Corp., priority 2018, dated 2022)

Assays:
[1] = target: human A2b adenosine receptor (Homo sapiens (Human), UniProt P29275); assay: A2b radioligand filtration binding assay; details: membranes from HEK293 cells expressing human A2b receptor
Procedure, shortened: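 Displacement of a tritiated A2b antagonist (working solution 14 nM) from human A2b receptor membranes of recombinant HEK293 cells, in Mg/Ca-free PBS pH 7.4, 60 min at room temperature after 15 to 30 min compound preincubation. Filtered, counted; normalized to total and 20 μM NECA non-specific binding; IC50 from logistic fit.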

[2] = target: human A2a adenosine receptor (Homo sapiens (Human), UniProt P29274); assay: A2a receptor affinity radioligand binding assay ([3H] SCH58261); details: for IC50: membranes from HEK293 or CHO cells expressing human A2a receptor
Procedure, shortened: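 IC50 values come from 4-parameter logistic fits of filter-bound radioactivity, normalized to total (1% DMSO) and nonspecific (1 μM ZM241385) binding. Recombinant human A2a membranes (HEK293 or CHO) were exposed to compound for 15–30 min, then to [3H]SCH58261 (4 nM working dilution) for 60 min at room temperature in Tris pH 7.4/MgCl2/Tween20 buffer.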

Sequence of human A2b adenosine receptor (P29275 whole entry): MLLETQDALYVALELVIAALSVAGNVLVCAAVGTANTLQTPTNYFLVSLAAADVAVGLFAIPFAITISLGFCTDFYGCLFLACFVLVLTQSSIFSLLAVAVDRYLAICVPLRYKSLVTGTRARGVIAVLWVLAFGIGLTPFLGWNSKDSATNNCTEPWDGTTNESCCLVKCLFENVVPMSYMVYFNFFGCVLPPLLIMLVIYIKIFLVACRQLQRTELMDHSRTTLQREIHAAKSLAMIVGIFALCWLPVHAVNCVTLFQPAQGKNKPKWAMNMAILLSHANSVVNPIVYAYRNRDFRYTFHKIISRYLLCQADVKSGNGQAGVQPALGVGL
Sequence of human A2a adenosine receptor (P29274 whole entry): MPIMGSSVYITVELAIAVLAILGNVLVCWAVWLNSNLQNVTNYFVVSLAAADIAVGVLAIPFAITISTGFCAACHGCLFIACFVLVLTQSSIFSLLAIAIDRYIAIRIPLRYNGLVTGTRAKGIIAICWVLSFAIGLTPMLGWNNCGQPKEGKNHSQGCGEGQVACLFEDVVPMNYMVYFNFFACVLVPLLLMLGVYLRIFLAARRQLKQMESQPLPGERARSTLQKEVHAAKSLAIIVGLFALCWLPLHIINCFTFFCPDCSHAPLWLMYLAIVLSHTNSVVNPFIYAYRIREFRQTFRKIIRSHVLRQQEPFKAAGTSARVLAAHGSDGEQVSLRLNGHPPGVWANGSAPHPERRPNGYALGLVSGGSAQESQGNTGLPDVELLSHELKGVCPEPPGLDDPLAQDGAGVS

## COc1cc2nc(N)n3nc(C4CCC(C)N(c5cnn(C(C)(C)CO)c5)C4)nc3c2cc1F (single isomer, unassigned) [Example 128]
[1]
  IC50: 2.4 nM
[2]
  IC50: 0.3 nM

## COc1cc(F)cc2c1nc(N)n1nc(C3(F)CCCN(c4cnn(CC(C)(C)O)c4)C3)nc21 (single isomer, unassigned) [Example 133, (S or R)-1-(4-(3-(5-amino-9-fluoro-7-methoxy-[1,2,4]triazolo[1,5-c]quinazolin-2-yl)-3-fluoropiperidin-1-yl)-1H-pyrazol-1-yl)-2-methylpropan-2-ol]
[1]
  IC50: 559 nM
[2]
  IC50: 4.3 nM

## COc1cc(F)cc2c1nc(N)n1nc(C3(F)CCCN(c4cnn(CC(C)(C)O)c4)C3)nc21 (single isomer, unassigned) [Example 134, (R or S)-1-(4-(3-(5-amino-9-fluoro-7-methoxy-[1,2,4]triazolo[1,5-c]quinazolin-2-yl)-3-fluoropiperidin-1-yl)-1H-pyrazol-1-yl)-2-methylpropan-2-ol]
[1]
  IC50: 4290 nM
[2]
  IC50: 124 nM

## COc1cc2nc(N)n3nc(C4CN(c5cn(CC(C)(C)O)nc5C)CCS4(=O)=O)nc3c2cc1F (single isomer, unassigned) [Example 142, (R or S)-2-(5-amino-9-fluoro-8-methoxy-[1,2,4]triazolo[1,5-c]quinazolin-2-yl)-4-(1-(2-hydroxy-2-methylpropyl)-3-methyl-1H-pyrazol-4-yl)thiomorpholine 1,1-dioxide]
[1]
  IC50: 7940 nM
[2]
  A2A binding % Inh. @ 1000 nM: 32% Inh. @

## COc1cc2nc(N)n3nc(C4CN(c5cn(CC(C)(C)O)nc5C)CCS4(=O)=O)nc3c2cc1F (single isomer, unassigned) [Example 143, (S or R)-2-(5-amino-9-fluoro-8-methoxy-[1,2,4]triazolo[1,5-c]quinazolin-2-yl)-4-(1-(2-hydroxy-2-methylpropyl)-3-methyl-1H-pyrazol-4-yl)thiomorpholine 1,1-dioxide]
[1]
  IC50: 7560 nM
[2]
  IC50: 984 nM

## COc1cc2nc(N)n3nc(C4CN(c5cnn(CC(C)(C)O)c5C)CCS4(=O)=O)nc3c2cc1F (single isomer, unassigned) [Example 144, (R or S)-2-(5-amino-9-fluoro-8-methoxy-[1,2,4]triazolo[1,5-c]quinazolin-2-yl)-4-(1-(2-hydroxy-2-methylpropyl)-5-methyl-1H-pyrazol-4-yl)thiomorpholine 1,1-dioxide]
[1]
  IC50: 7140 nM
[2]
  A2A binding % Inh. @ 1000 nM: 30% Inh. @

## COc1cc2nc(N)n3nc(C4CN(c5cnn(CC(C)(C)O)c5C)CCS4(=O)=O)nc3c2cc1F (single isomer, unassigned) [Example 145, (S or R)-2-(5-amino-9-fluoro-8-methoxy-[1,2,4]triazolo[1,5-c]quinazolin-2-yl)-4-(1-(2-hydroxy-2-methylpropyl)-5-methyl-1H-pyrazol-4-yl)thiomorpholine 1,1-dioxide]
[1]
  IC50: 8050 nM
[2]
  A2A binding % Inh. @ 1000 nM: 32% Inh. @

## CCn1cc([C@@]2(O)CCCC(c3nc4c5cc(F)c(OC)cc5nc(N)n4n3)C2)cn1 (single isomer, unassigned) [Example 146, (1R or 1S,3R or 3S)-3-(5-amino-9-fluoro-8-methoxy-[1,2,4]triazolo[1,5-c]quinazolin-2-yl)-1-(1-ethyl-1H-pyrazol-4-yl)cyclohexan-1-ol]
[1]
  IC50: 137 nM
[2]
  IC50: 2.1 nM

## CCn1cc([C@]2(O)CCC[C@H](c3nc4c5cc(F)c(OC)cc5nc(N)n4n3)C2)cn1 (single isomer, unassigned) [Example 147, (1S or 1R,3S or 3R)-3-(5-amino-9-fluoro-8-methoxy-[1,2,4]triazolo[1,5-c]quinazolin-2-yl)-1-(1-ethyl-1H-pyrazol-4-yl)cyclohexan-1-ol]
[1]
  IC50: 6330 nM
[2]
  IC50: 870 nM

## CCn1cc([C@]2(O)CCC[C@@H](c3nc4c5cc(F)c(OC)cc5nc(N)n4n3)C2)cn1 (single isomer, unassigned) [Example 148, (1S or 1R,3R or 3S)-3-(5-amino-9-fluoro-8-methoxy-[1,2,4]triazolo[1,5-c]quinazolin-2-yl)-1-(1-ethyl-1H-pyrazol-4-yl)cyclohexan-1-ol]
[1]
  IC50: 4430 nM
[2]
  IC50: 385 nM

## CCn1cc([C@]2(O)CCC[C@@H](c3nc4c5cc(F)c(OC)cc5nc(N)n4n3)C2)cn1 (single isomer, unassigned) [Example 149, (1S or 1R,3R or 3S)-3-(5-amino-9-fluoro-8-methoxy-[1,2,4]triazolo[1,5-c]quinazolin-2-yl)-1-(1-ethyl-1H-pyrazol-4-yl)cyclohexan-1-ol]
[1]
  IC50: 96.6 nM
[2]
  IC50: 1.8 nM

## COc1cccc2c1nc(N)n1nc([C@@H]3CCC[C@](O)(c4cnn(CC(C)(C)O)c4)C3)nc21 (single isomer, unassigned) [Example 150, (1R,3R or 1S,3S)-3-(5-amino-7-methoxy-[1,2,4]triazolo[1,5-c]quinazolin-2-yl)-1-(1-(2-hydroxy-2-methylpropyl)-1H-pyrazol-4-yl)cyclohexan-1-ol]
[1]
  IC50: 181 nM
[2]
  IC50: 1.4 nM

## COc1cc2nc(N)n3nc([C@@H]4CCCN(c5ncn(CC(C)(C)O)n5)C4)nc3c2cc1F [Example 1, (R)-1-(3-(3-(5-amino-9-fluoro-8-methoxy-[1,2,4]triazolo[1,5-c]quinazolin-2-yl)piperidin-1-yl)-1H-1,2,4-triazol-1-yl)-2-methylpropan-2-ol]
[1]
  IC50: 554 nM
[2]
  IC50: 7.5 nM

## COc1cc2nc(N)n3nc([C@@H]4CCCN(c5cnn(C)c5)C4)nc3c2cc1F [Example 2, (R)-9-fluoro-8-methoxy-2-(1-(1-methyl-1H-pyrazol-4-yl)piperidin-3-yl)-[1,2,4]triazolo[1,5-c]quinazolin-5-amine]
[1]
  IC50: 9.4 nM
[2]
  IC50: 3.7 nM

## COc1cc2nc(N)n3nc([C@@H]4CCCN(c5cnn(C(C)(C)C)c5)C4)nc3c2cc1F [Example 3, (R)-2-(1-(1-(tert-butyl)-1H-pyrazol-4-yl)piperidin-3-yl)-9-fluoro-8-methoxy-[1,2,4]triazolo[1,5-c]quinazolin-5-amine]
[1]
  IC50: 180 nM
[2]
  IC50: 1.5 nM

## COc1cc2nc(N)n3nc([C@@H]4CCCN(c5cnn(C(C)C)c5)C4)nc3c2cc1F [Example 4, (R)-9-fluoro-2-(1-(1-isopropyl-1H-pyrazol-4-yl)piperidin-3-yl)-8-methoxy-[1,2,4]triazolo[1,5-c]quinazolin-5-amine]
[1]
  IC50: 2.6 nM
[2]
  IC50: 4.6 nM

## COc1cc2nc(N)n3nc([C@@H]4CCCN(c5cnn(CC(F)(F)F)c5)C4)nc3c2cc1F [Example 5, (R)-9-fluoro-8-methoxy-2-(1-(1-(2,2,2-trifluoroethyl)-1H-pyrazol-4-yl)piperidin-3-yl)[1,2,4]triazolo[1,5-c]quinazolin-5-amine]
[1]
  IC50: 1.6 nM
[2]
  IC50: 3.3 nM

## COc1cc2nc(N)n3nc([C@@H]4CCCN(c5cn(C)nn5)C4)nc3c2cc1F [Example 6, (R)-9-fluoro-8-methoxy-2-(1-(1-methyl-1H-1,2,3-triazol-4-yl)piperidin-3-yl)-[1,2,4]triazolo[1,5-c]quinazolin-5-amine]
[1]
  IC50: 85.9 nM
[2]
  IC50: 2 nM

## COc1cc2nc(N)n3nc([C@@H]4CCCN(c5cnn(CC(C)(C)O)c5)C4)nc3c2cc1F [Example 7, (R)-1-(4-(3-(5-amino-9-fluoro-8-methoxy-[1,2,4]triazolo[1,5-c]quinazolin-2-yl)piperidin-l-yl)-1H-pyrazol-1-yl)-2-methylpropan-2-ol]
[1]
  IC50: 104 nM
[2]
  IC50: 3.7 nM

## COc1cc2nc(N)n3nc([C@@H]4CCCN(c5cnn(CC(C)(C)O)c5C)C4)nc3c2cc1F [Example 8, (R)-1-(4-(3-(5-amino-9-fluoro-8-methoxy-[1,2,4]triazolo [1,5-c]quinazolin-2-yl)piperidin-l-yl)-5-methyl-1H-pyrazol-1-yl)-2-methylpropan-2-ol]
[1]
  IC50: 149 nM
[2]
  IC50: 4.5 nM

## COc1cc2nc(N)n3nc([C@@H]4CCCN(c5cn(CC(C)(C)O)nc5C)C4)nc3c2cc1F [Example 9, (R)-1-(4-(3-(5-amino-9-fluoro-8-methoxy-[1,2,4]triazolo [1,5-c]quinazolin-2-yl)piperidin-1-yl)-3-methyl-1H-pyrazol-1-yl)-2-methylpropan-2-ol]
[1]
  IC50: 136 nM
[2]
  IC50: 0.5 nM

## COc1cc2nc(N)n3nc([C@@H]4CCCN(c5cnn(CC6(O)CCC6)c5)C4)nc3c2cc1F [Example 10, (R)-1-((4-(3-(5-amino-9-fluoro-8-methoxy-[1,2,4]triazolo [1,5-c]quinazolin-2-yl)piperidin-1-yl)-1H-pyrazol-1-yl)methyl)cyclobutan-1-ol]
[1]
  IC50: 63.4 nM
[2]
  IC50: 3.5 nM

## COc1cc2nc(N)n3nc([C@@H]4CCCN(c5cn(C(C)(C)CO)nc5C)C4)nc3c2cc1F [Example 11, (R)-2-(4-(3-(5-amino-9-fluoro-8-methoxy-[1,2,4]triazolo[1,5-c]quinazolin-2-yl)piperidin-1-yl)-3-methyl-1H-pyrazol-1-yl)-2-methylpropan-1-ol]
[1]
  IC50: 56 nM
[2]
  IC50: 0.5 nM

## COc1cc2nc(N)n3nc([C@@H]4CCCN(c5cnn([C@H]6C[C@@](C)(O)C6)c5)C4)nc3c2cc1F [Example 14, (1s,3s)-3-(4-((R)-3-(5-amino-9-fluoro-8-methoxy-[1,2,4]triazolo[1,5-c]quinazolin-2-yl)piperidin-l-yl)-1H-pyrazol-1-yl)-methylcyclobutan-1-ol]
[1]
  IC50: 225 nM
[2]
  IC50: 3 nM

## COc1cc2nc(N)n3nc([C@@H]4CCCN(c5cnn(CC6(C)COC6)c5)C4)nc3c2cc1F [Example 15, (R)-9-fluoro-8-methoxy-2-(1-(1-((3-methyloxetan-3-yl)methyl)-1H-pyrazol-4-yl)piperidin-3-yl)[1,2,4] triazolo[1,5-c]quinazolin-5-amine]
[1]
  IC50: 905 nM
[2]
  IC50: 38.4 nM
